Legend:
[1] = tested on: S. pyogenes serotype M49 strain 591; experiment: Bacterial killing assay, S. pyogenes; type: cell-based, Streptococcus pyogenes; settings: 6 h; for log CFU reduction: S. pyogenes M49 591, 5 µM CPP–PNA, n = 5
Procedure: (§1) S. pneumoniae serotype 4 strain TIGR4: after culturing, S. pneumoniae serotype 4 strain TIGR4 was diluted to approximately 10^5 CFU/mL in phosphate-buffered saline (PBS)/THY (95%/5%). S. pyogenes serotype M49 strain 591: An overnight culture of S. pyogenes serotype M49 strain 591 was diluted to approximately 10^5 CFU/mL in PBS/BHI (70%/30%). An amount of 400 µL of the respective bacterial suspension was transferred to a 2 mL polypropylene reaction tube. 4-(1-pyrenyl)-butyric acid (Merck, Darmstadt, Germany) was dissolved to 1 M in DMSO. The solution was stored in the dark and further dilution steps were performed in PBS and 3% DMSO. An amount of 50 µL PyB in PBS/DMSO was added to the bacterial suspension at a final concentration of 50–400 µM and pre-incubated for 10 min at 37 °C and 7 rpm (Rotor SB3, Stuart, Staffordshire, UK). An amount of 50 µL PBS served as a mock control. Following pre-incubation, 50 µL of CPP–PNA solution was added to a final concentration of 5–10 µM or as indicated. An amount of 50 µL molecular grade H2O served as a mock control. The reaction tubes were incubated for another 6 h at 37 °C and 7 rpm. Killing kinetics were observed over 12 h. Samples were collected at time points of 2–12 h following addition of CPP–PNAs, and bacteria were plated on BHI solid medium following serial dilution. Agar plates were incubated for 24 h at 37 °C under a 5% CO2 atmosphere and CFUs were counted. The bacterial count at the beginning of the experiment was 1–3 × 10^5 CFU/mL. Each experiment was conducted at least three times in independent biological replicates.

[2] = tested on: S. pneumoniae serotype 4 strain TIGR4; experiment: Bacterial killing assay, S. pneumoniae; type: cell-based, Streptococcus pneumoniae; settings: for Significance of the effect of PyB pre-treatment on antimicrobial efficacy (CFU reduction): S. pneumoniae TIGR4, 10 µM CPP–PNA, 200 µM PyB 10 min pre-treatment vs none, one-way ANOVA; for Change of antibacterial activity in the presence of PyB (non-significant trend): S. pneumoniae TIGR4, 200 µM PyB pre-treatment, related to proportion of positively charged residues of the CPP; for log CFU reduction: S. pneumoniae TIGR4, CPP-anti-gyrA PNA (10 µM in this experiment), without PyB
Procedure: as §1, with “The bacterial count at the beginning of the experiment was 1–3 × 10^5 CFU/mL.” left out

[3] = tested on: S. pyogenes serotype M49 strain 591; experiment: In vitro time killing assay (killing kinetics over 12 h); type: cell-based, Streptococcus pyogenes; settings: n = 3
Procedure: as §1
Therefore, the kinetics of the antimicrobial activity of K8-conjugated anti-gyrA PNA in the presence of PyB were studied in an in vitro time killing assay in S. pyogenes. Bacteria were treated with 2.5 or 5 μM CPP-antisense PNAs or scrambled control PNAs (Figure 3) with or without pre-treatment with 100 µM PyB. Samples were collected at 2, 4, 6, and 12 h following antisense treatment. CFUs per milliliter were determined by plating of serial dilutions and plotted over time. Untreated bacteria grew by 1–1.5 log CFU over the course of the experiment. […] Following treatment with 2.5 µM K8-conjugated scPNA, no reduction in bacterial counts was observed throughout the experiment. Upon treatment with 5 µM K8-conjugated scPNA, growth was reduced by 0.6 log CFU in comparison to the untreated control, indicating an inhibitory effect of the CPP under these conditions. Overall, pre-treatment with PyB enhanced the activity of K8-anti-gyrA PNA and allowed the eradication of S. pyogenes in vitro.

## O=C(O)CCCc1ccc2ccc3cccc4ccc1c2c34 [PyB, 4-(1-pyrenyl)-butyric acid, reference compound]
[1]; S. pyogenes 591, 5 × 10^5 CFU/mL, PyB alone 50–200 µM, stated up to 200 µM, n = 4
  Toxicity of PyB (CFU/mL compared to untreated control): No significant toxicity
[1]; S. pyogenes, 200 µM PyB alone, n = 4
  Viable counts after treatment with PyB: decreased slightly
[2]; S. pneumoniae TIGR4, 8 × 10^5 CFU/mL, PyB alone 50–400 µM, 6 h, stated up to 400 µM, n = 4
  Toxicity of PyB (CFU/mL compared to untreated control): unaffected

## KKKKKKKK-eg-attagactgt [K8-anti-gyrA scPNA, Oligolysin (K8) coupled to scrambled control PNA attagactgt, S. pyogenes]
[3]; 2.5 µM scrambled control, 12 h
  Reduction in bacterial counts throughout the experiment: no reduction
[3]; 5 µM scrambled control, 12 h course
  Growth reduction in comparison to the untreated control: 0.6 log CFU

## KKKKKKKK-eg-tgcatttaag [K8-anti-gyrA PNA, Oligolysin (K8) coupled to anti-gyrA PNA tgcatttaag, S. pyogenes]
[1]; after pre-treatment with 100 µM PyB for 10 min
  log CFU reduction: 4.8 log CFU
[1]; without PyB pre-treatment, PBS/BHI (70%/30%)
  log CFU reduction: 3.7 log CFU
[3]; 5 µM, after pre-treatment with 100 µM PyB
  Time until clearance of S. pyogenes CFUs: 12 h
[3]; 2.5 or 5 µM, without PyB, 12 h
  Eradication of S. pyogenes during the course of the assay: not eradicated
[3]; 2.5 or 5 µM, without PyB, samples at 2, 4, 6, 12 h
  Viable bacteria over time: constant decrease

## RQIRIWFQNRRMRWRR-eg-tgcattaata [PenArg-anti-gyrA PNA, PenArg coupled to anti-gyrA PNA tgcattaata, S. pneumoniae]
[2]; 6 h
  Significance of the effect of PyB pre-treatment on antimicrobial efficacy (CFU reduction): no significant effect
  log CFU reduction: 3.3 log CFU
[2]
  Change of antibacterial activity in the presence of PyB (non-significant trend): not enhanced

## RRRRRRRRR-eg-tgcattaata [R9-anti-gyrA PNA, R9 coupled to anti-gyrA PNA tgcattaata, S. pneumoniae]
[2]; 6 h
  Significance of the effect of PyB pre-treatment on antimicrobial efficacy (CFU reduction): no significant effect
  log CFU reduction: 4 log CFU
[2]
  Change of antibacterial activity in the presence of PyB (non-significant trend): slightly increased

## RXRRXRRXRRXRXB-eg ^1 -tgcatttaag [(RXR)4XB-anti-gyrA PNA, (RXR)4XB coupled via eg linker to anti-gyrA PNA tgcatttaag, S. pyogenes]
[2]; 6 h
  Significance of the effect of PyB pre-treatment on antimicrobial efficacy (CFU reduction): did not significantly enhance
[2]
  Change of antibacterial activity in the presence of PyB (non-significant trend): not enhanced

Reference: paper PMC10537354, “Pyrenebutyrate Enhances the Antibacterial Effect of Peptide-Coupled Antisense Peptide Nucleic Acids in Streptococcus pyogenes” (Microorganisms, 2023)
